From patent US20170057958A1, “ENANTIOMERS OF THE N-(2-AMINO-5-FLUORO-2-METHYLPENTYL)-8-[(2,6-DIFLUOROBENZYL)OXY]-2-METHYLIMIDAZO[1,2-A]PYRIDINE-3-CARBOXAMIDE, AS WELL AS OF THE DI- AND TRIFLUORO DERIVATIVES FOR THE TREATMENT OF CARDIOVASCULAR DISEASES” (BAYER PHARMA AKTIENGESELLSCHAFT, priority 2014, published 2017)

system: recombinant guanylate cyclase reporter cell line; assay: Effect on a recombinant guanylate cyclase reporter cell line; format: cell-based; conditions: in some cases mean values for individual determinations
Description: B-2. Effect on a Recombinant Guanylate Cyclase Reporter Cell Line
The cellular activity of the compounds according to the invention is determined using a recombinant guanylate cyclase reporter cell line, as described in F. Wunder et al., Anal. Biochem. 339, 104-112 (2005).
Representative MEC values (MEC=minimum effective concentration) for the compounds of the invention are shown in the table below (in some cases as mean values for individual determinations): […]

Row | SMILES | MEC (minimum effective concentration)
1 | Cc1nc2c(OCc3c(F)cccc3F)cccn2c1C(=O)NCC(C)(N)CCC(F)(F)F (single isomer, unassigned; enantiomer a) [Example 5, ent-N-(2-amino-5,5,5-trifluoro-2-methylpentyl)-8-[(2,6-difluorobenzyl)oxy]-2-methylimidazo[1,2-a]pyridine-3-carboxamide (enantiomer A)] | 0.1 µM
2 | Cc1nc2c(OCc3c(F)cccc3F)cccn2c1C(=O)NCC(C)(N)CC(F)F (single isomer, unassigned; enantiomer a) [Example 3, ent-N-(2-amino-4,4-difluoro-2-methylbutyl)-8-[(2,6-difluorobenzyl)oxy]-2-methylimidazo[1,2-a]pyridine-3-carboxamide (enantiomer A)] | 0.3 µM
3 | Cc1nc2c(OCc3c(F)cccc3F)cccn2c1C(=O)NCC(C)(N)CCCF (single isomer, unassigned; enantiomer a) [Example 1, ent-N-(2-amino-5-fluoro-2-methylpentyl)-8-[(2,6-difluorobenzyl)oxy]-2-methylimidazo[1,2-a]pyridine-3-carboxamide (enantiomer A)] | 0.3 µM
4 | Cc1nc2c(OCc3c(F)cccc3F)cccn2c1C(=O)NCC(C)(N)CCC(F)(F)F (single isomer, unassigned; enantiomer b) [Example 6, ent-N-(2-amino-5,5,5-trifluoro-2-methylpentyl)-8-[(2,6-difluorobenzyl)oxy]-2-methylimidazo[1,2-a]pyridine-3-carboxamide (enantiomer B)] | 0.03 µM
5 | Cc1nc2c(OCc3c(F)ccc(F)c3F)cccn2c1C(=O)NCC(C)(N)CCC(F)(F)F (single isomer, unassigned; enantiomer b) [Example 7, ent-N-(2-amino-5,5,5-trifluoro-2-methylpentyl)-2-methyl-8-[(2,3,6-trifluorobenzyl)oxy]imidazo[1,2-a]pyridine-3-carboxamide (enantiomer B)] | 0.09 µM
6 | Cc1nc2c(OCc3c(F)cccc3F)cccn2c1C(=O)NCC(C)(N)CC(F)F (single isomer, unassigned; enantiomer b) [Example 4, ent-N-(2-amino-4,4-difluoro-2-methylbutyl)-8-[(2,6-difluorobenzyl)oxy]-2-methylimidazo[1,2-a]pyridine-3-carboxamide (enantiomer B)] | 0.3 µM
7 | Cc1nc2c(OCc3c(F)cccc3F)cccn2c1C(=O)NCC(C)(N)CCCF (single isomer, unassigned; enantiomer b) [Example 2, ent-N-(2-amino-5-fluoro-2-methylpentyl)-8-[(2,6-difluorobenzyl)oxy]-2-methylimidazo[1,2-a]pyridine-3-carboxamide (enantiomer B)] | 0.3 µM
